Laboratory results published in PMC8635125, “A Novel Dibenzoxazepine Attenuates Intracellular Salmonella Typhimurium Oxidative Stress Resistance” (Microbiology Spectrum, 2021).

How the values were obtained:
Format in all cases: cell-based, Salmonella enterica serovar Typhimurium
[1] = tested on: S. Typhimurium ATCC 14028; assay: Efflux pump activity (Hoechst 33342 accumulation assay); details: data not shown in text; Fig. S2
Protocol: Figure S2. The accumulation of Hoechst 33342 in S. Typhimurium ATCC 14028 treated
with escalated concentrations of SW14 for 1 h in the LPM medium was measured using a
fluorescence microplate reader. The data are presented as the mean ± SD (n = 3 per group).
ns: non-significant, P > 0.05; ***P < 0.001; ****P < 0.0001.
Hoechst 33342 accumulation assay
Overnight-grown S. Typhimurium cultured in LB medium was diluted 1:50 in LPM
medium and incubated at 37°C for 3 h. The bacterial suspension was adjusted to an OD600
of 0.1 in fresh LPM medium supplemented with 2.5 µM Hoechst 33342 (Thermo Fisher
Scientific) followed by treatment of mock (DMSO) or SW14 (0.03125 – 8 µM in DMSO)
for 1 h. Bacterial cells which were treated with high temperature (90° C) for 10 min (heat-
killed) rapidly accumulated Hoechst 33342 and served as positive control. Fluorescence
was monitored on a SpectraMax M5 (Molecular devices) with a 355 nm excitation filter
and 460 nm emission filter. The percent inhibition was calculated by the equation: 100 ´
[(SW14-treated – mock) / (Heat-killed – mock)].

[2] = tested on: S. Typhimurium; assay: Bacterial growth assay (OD600); details: for concentration inhibiting bacterial growth (OD600): 24 h
Protocol: Overnight-grown S. […] The plate was incubated at 37°C, and bacterial growth was monitored by measuring the absorbance at 600 nm with a VersaMax Microplate reader (Molecular Devices) at designated times for 24 h.

[3] = tested on: multidrug-resistant S. Typhimurium isolates 0911R and NL08.10 in RAW264.7 cells; assay: HCA of intracellular multidrug-resistant isolates in macrophages; details: 0911R and NL08.10, gentamicin, 24 h
Protocol: Overnight cultures of RFP-expressing S. Typhimurium were prepared for infection by 1:100 dilution in fresh LB broth and incubation for 2 h at 37°C. The bacteria were then collected by centrifugation at 6,000 × g for 3 min and suspended in phosphate-buffered saline (PBS; pH 7.2) to an optical density of 0.6 at 600 nm, which was equivalent to 5 × 10^8 CFU/mL. RAW264.7 macrophages were seeded in 96-well black clear-bottom plates (Greiner) and incubated for 20 h followed by infection with RFP-expressing S. Typhimurium at a multiplicity of infection (MOI) of 50 for 1 h. […] Afterward, the cells were washed and stained with CellTracker Green (Thermo Fisher Scientific) for 30 min in serum-free DMEM followed by fixation in 3.7% formaldehyde (Sigma-Aldrich) for 20 min and stained with 0.2 mg/L DAPI (4′,6-diamidino-2-phenylindole; AAT Bioquest) for 30 min. Images of individual wells were captured and analyzed using a high-content imaging system (ImageXpress Micro 4; Molecular Devices). The CC50 and 50% effective concentration (EC50) values against intracellular bacteria of each compound were determined using CalcuSyn software (Biosoft).

SMILES: Clc1ccc2c(c1)C(NCCN1CCNCC1)=Nc1ccccc1O2 [SW14]
- efflux pump activity in S. Typhimurium [1]: efflux pump suppressive effect
- concentration inhibiting bacterial growth (OD600) ([2]; Luria-Bertani (LB) medium): > 64 µM
- growth of Salmonella in LPM medium ([2]; acidic low-phosphate, low-magnesium (LPM) medium): unable to detect any significant change
- concentration inhibiting bacterial growth in broth ([2]; broth): > 64 µM
- concentration inhibiting bacterial growth (OD600) ([2]; cell culture medium (DMEM + 10% FBS)): > 64 µM
- intracellular replication of MDR S. Typhimurium isolates [3]: remained susceptible
